# From patent US20240384268A1, “Oligonucleotides” (Hudson Institute of Medical Research, priority 2021, published 2024)
# Entries after “also recorded” stand apart in the source; their conditions may differ. In the oligonucleotide strings, read from the 5' end, every base follows the letter of its sugar. An asterisk marks phosphorothioate; unmarked linkages are phosphodiester. Other units and linkages are bracketed, terminal groups are in braces. A string of capitals states the bases alone. d = 2'-deoxy (DNA); m = 2'-O-methyl
# What was measured:
# [1] = molecular target: T1, cGAS (Homo sapiens, UniProt Q8N884); experiment: ISD70-driven IP-10 production in MG-63 cells; type: cell-based; set-up: endogenous in cells; settings: C2-Mut1 500 nM 6 h, or ASO847 series ~30 min, ISD70 overnight
# [2] = molecular target: T2, mouse Tlr9 (Mus musculus, UniProt Q9EQU3); experiment: ODN 1826-driven TNF-α in immortalised mouse BMDMs; type: cell-based; settings: iBMDMs; 250-500 nM ASO; ODN 1826 500 nM overnight; listed as C2-Mutl
# T2 construct: endogenous in cells; host or cells: immortalised wild-type mouse BMDMs
# T2 sequence (Q9EQU3 26-1032): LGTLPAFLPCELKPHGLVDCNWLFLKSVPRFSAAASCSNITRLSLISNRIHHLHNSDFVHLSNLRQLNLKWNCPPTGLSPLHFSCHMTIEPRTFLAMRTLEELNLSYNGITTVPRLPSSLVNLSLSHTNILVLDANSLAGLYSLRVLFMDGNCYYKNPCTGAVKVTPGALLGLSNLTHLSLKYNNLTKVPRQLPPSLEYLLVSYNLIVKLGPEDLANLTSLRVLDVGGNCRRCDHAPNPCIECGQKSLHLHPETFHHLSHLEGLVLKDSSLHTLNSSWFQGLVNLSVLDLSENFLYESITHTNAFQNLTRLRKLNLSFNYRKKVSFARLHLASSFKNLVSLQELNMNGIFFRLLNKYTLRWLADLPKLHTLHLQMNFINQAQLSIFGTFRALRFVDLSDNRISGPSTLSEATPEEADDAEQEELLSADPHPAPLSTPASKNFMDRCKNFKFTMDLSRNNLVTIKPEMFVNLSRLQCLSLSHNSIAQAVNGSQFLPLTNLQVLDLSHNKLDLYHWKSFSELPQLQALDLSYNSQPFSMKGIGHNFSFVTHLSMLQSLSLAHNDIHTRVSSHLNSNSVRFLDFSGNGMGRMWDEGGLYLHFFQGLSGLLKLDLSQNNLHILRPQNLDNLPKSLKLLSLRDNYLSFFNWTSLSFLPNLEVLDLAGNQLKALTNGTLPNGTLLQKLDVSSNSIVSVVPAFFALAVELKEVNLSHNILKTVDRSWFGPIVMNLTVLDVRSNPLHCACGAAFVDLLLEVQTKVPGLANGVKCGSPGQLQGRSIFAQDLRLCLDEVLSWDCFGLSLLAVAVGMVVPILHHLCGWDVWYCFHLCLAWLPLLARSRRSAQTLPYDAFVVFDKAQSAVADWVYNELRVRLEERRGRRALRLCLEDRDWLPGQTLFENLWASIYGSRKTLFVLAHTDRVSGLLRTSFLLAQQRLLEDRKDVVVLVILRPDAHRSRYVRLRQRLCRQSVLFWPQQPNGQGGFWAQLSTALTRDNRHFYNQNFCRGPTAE
# [3] = test system: TLR4; experiment: LPS-driven IP-10 in MG-63 cells and immortalised mouse BMDMs; type: cell-based, human; settings: 500 nM ASO 6 h; LPS 1 μg/ml overnight
# [4] = molecular target: T1, cGAS; experiment: ISD70-driven IP-10 production in HT-29 cells, ELISA; type: cell-based; set-up: endogenous in cells; settings: ISD70 24 h
# Method: In such examples, inhibition of cGAS activity can be identified by observation of an overall decreased cGAS response of the cell population, or a lower proportion of cells having cGAS-positive activity as compared to positive control condition in which cells are treated with cGAS agonist in the absence of the oligonucleotide (or in the presence of an appropriate control inhibitory agent). In one example, THP-1 or HT-29 cells are transfected with ISD70 and incubated with an oligonucleotide. cGAS activity can then be determined by cytokine (e.g., IP-10 and/or IFNβ) expression (e.g., gene and/or protein expression) and/or secretion levels, such as by ELISA. A similar assay can be performed with LL171 cells transfected with ISD45. […] By way of example, cGAS enzymatic activity may be assessed in vitro using recombinant cGAS and then measuring activity thereof by way of a cGAMP ELISA.
# For cGAS stimulations, cells were treated for indicated duration with ASOs, prior to transfection with ISD70 (human cells) or ISD45 (mouse cells) (the ASOs were not washed off prior to ISD transfection unless otherwise indicated). The cGAS ligands ISD45 (Stetson and Medzhitov, 2006) and ISD70 (also known as VACV-70 (Unterholzner et al., 2010)) (Table 1) were resuspended as follows: 5 1d of sense and 5 μl of antisense strands at 10 μg/μl were added to 90 μl PBS under sterile conditions, heated at 75° C. for 30 min, prior to letting cool down at room temperature and aliquoting (stock at 1 μg/1 l). The ISDs were transfected at a concentration of […] at a ratio of 1 μg:1 μl with Lipofectamine 2000 in Opti-MEM (Thermo Fisher Scientific). HEK-TLR3, HEK-TLR7 and […] were treated with indicated concentration of ASOs for 20-50 min, prior to stimulation with poly(I:C) (Invivogen), R848 (Invivogen), Motolimod (MedChemExpress) and the Class B CpG oligonucleotides ODN 2006 (synthesised by IDT and resuspended in RNase-free TE buffer [Table 1]), respectively. The TLR2/1 agonist PAM3CSK4 (Invivogen), the TLR4 agonist lipopolysaccharide (Invivogen), the Class B CpG oligonucleotides ODN 1826 (synthesised by IDT and resuspended in RNase-free TE buffer), the mouse Sting agonist DMXAA (Cayman) and the human STING agonist (compound #3 from (Raanjulu et al., 2018), referred to as GSK herein—kind gift from Cancer Therapeutics CRC, Australia) were used at indicated concentrations. Aspirin (Sigma—A2093) was resuspended in pure medium to 10 mM, filter sterilised and added to the cells at 2 mM final. All ASOs were synthesised by Integrated DNA Technologies (IDT), and resuspended in RNase-free TE buffer, pH 8.0 (Thermo Fisher Scientific). Cell viability was assessed by adding 1× fresh resazurin solution to the wells (10λ solution made up with 7 mg resazurin [Sigma—R7017] dissolved in 3.5 ml PBS, sterile filtered at […]) for 4 h, prior to reading at with a Fluostar OPTIMA (BMG LABTECH) plate-reader (fluorescence: Excitation 535 nm, Emission 590); wells with medium only and 1× resazurin were used as blanks.
# Human IP-10 and IFN-β levels were measured using supernatants from the different cultures and were quantified using IP-10 (BD Biosciences, #550926) or IFN-β (PBL assay science, #41415-1) ELISA kits respectively, according to the manufacturers' protocol. Tetramethylbenzidine substrate (Thermo Fisher Scientific) was used for quantification of the cytokines on a Fluostar OPTIMA (BMG LABTECH) plate-reader.
# [5] = molecular target: T3, TLR2/1 (Mus musculus, UniProt Q9EPQ1+Q9QUN7); experiment: PAM3CSK4-driven TNF-α in immortalised mouse BMDMs; type: cell-based; settings: iBMDMs; 500 nM ASO 6 h; PAM3C 100 ng/ml
# T3 construct: endogenous in cells; host or cells: immortalised wild-type mouse BMDMs
# T3 sequence (Q9QUN7 25-784): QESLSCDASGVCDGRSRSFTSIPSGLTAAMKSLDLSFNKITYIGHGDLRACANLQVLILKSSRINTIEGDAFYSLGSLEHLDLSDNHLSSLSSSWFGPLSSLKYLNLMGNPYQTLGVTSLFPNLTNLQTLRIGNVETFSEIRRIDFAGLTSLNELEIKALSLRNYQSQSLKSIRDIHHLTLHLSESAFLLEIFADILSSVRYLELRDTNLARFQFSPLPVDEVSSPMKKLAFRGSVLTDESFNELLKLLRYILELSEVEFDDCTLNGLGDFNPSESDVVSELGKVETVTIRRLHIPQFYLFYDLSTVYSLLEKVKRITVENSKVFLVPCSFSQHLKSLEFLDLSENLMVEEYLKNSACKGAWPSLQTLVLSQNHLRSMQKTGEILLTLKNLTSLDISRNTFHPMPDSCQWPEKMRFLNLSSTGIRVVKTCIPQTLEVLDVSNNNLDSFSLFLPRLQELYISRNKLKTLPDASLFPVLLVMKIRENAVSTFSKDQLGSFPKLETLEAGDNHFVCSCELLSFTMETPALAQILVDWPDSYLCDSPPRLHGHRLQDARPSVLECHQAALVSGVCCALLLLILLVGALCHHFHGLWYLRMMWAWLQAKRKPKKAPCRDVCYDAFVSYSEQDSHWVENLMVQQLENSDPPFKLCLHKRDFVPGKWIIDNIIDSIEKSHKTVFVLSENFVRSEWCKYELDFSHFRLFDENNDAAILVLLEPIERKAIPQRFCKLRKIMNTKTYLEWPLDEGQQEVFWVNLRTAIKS
# T3 sequence (Q9EPQ1 26-795): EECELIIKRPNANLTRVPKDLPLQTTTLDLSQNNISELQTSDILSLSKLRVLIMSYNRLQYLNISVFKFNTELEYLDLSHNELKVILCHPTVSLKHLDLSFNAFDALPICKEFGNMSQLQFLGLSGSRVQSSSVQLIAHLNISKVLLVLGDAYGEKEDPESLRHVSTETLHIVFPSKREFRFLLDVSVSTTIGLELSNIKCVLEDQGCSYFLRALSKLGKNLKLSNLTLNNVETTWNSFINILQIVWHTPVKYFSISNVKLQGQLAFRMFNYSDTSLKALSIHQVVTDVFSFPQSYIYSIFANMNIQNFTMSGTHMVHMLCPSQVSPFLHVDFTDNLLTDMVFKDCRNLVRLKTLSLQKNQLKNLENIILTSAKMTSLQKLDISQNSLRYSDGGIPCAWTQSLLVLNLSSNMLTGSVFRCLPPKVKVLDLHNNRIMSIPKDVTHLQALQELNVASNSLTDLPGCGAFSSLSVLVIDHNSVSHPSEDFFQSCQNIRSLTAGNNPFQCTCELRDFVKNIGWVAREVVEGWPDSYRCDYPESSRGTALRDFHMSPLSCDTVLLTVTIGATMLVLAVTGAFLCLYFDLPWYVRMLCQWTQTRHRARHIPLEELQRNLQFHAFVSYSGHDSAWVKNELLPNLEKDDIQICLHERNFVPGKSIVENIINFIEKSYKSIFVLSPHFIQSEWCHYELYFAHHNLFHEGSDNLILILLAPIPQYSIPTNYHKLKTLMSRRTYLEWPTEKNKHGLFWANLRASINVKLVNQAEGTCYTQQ
# T1 sequence (Q8N884 whole entry): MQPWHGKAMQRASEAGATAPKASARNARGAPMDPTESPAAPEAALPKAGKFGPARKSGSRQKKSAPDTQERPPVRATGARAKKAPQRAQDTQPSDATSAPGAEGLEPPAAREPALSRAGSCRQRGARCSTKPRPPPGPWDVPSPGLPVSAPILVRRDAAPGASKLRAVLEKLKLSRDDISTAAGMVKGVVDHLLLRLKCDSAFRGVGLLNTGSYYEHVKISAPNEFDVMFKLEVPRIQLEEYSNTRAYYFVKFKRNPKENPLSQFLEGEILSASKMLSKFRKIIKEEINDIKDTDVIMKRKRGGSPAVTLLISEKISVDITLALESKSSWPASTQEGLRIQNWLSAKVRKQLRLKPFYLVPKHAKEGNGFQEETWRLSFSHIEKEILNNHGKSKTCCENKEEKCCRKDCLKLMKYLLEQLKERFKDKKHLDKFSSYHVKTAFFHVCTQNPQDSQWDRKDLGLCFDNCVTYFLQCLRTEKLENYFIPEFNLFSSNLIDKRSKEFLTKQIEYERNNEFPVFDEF
substance,measurement,setting,value
mG*mC*mG*mG*mU*A*T*C*C*A*T*G*T*C*C*mC*mA*mG*mG*mC (mG*mC*mG*mG*mU*dA*dT*dC*dC*dA*dT*dG*dT*dC*dC*mC*mA*mG*mG*mC; antisense) [C2-Mut1],"inhibition of ISD sensing in MG-63, 2′OMe ASOs (in words)",[1],significantly impacting ISD sensing
same,inhibition of mouse TLR9 sensing of CpG ODN (TNF-α; in words),[2],significantly decreased sensing of the CpG ODN 1826; also recorded: very potent inhibitor of mouse TLR9
same,IP-10 production driven by LPS (in words),[3],did not significantly affect IP-10 production
same,inhibition of ISD70-dependent IP-10 production (in words),[4]; 187.5 nM ASO overnight,most inhibitory sequence of ISD70 sensing
same,effect on ISD70-induced IP-10 production at low dose (in words),[4]; ASO overnight at 125 nM (62.5-125 nM),increased inhibitory activity
same,TNF-α production upon PAM3CSK4 (in words),[5],did not impact production of TNF-α
